Experimental data taken from US20050113296A1, “Methods for identifying antimicrobial agents, the agents identified therewith and methods of using same” (priority 2001, published 2005).

Target: T1, E. coli yfhC polypeptide (Escherichia coli, UniProt P68398)
T1 construct: made in house; negative controls used a pBAD-derived vector
Test: yfhC polypeptide deamination of a defined substrate, inosine monitored by HPLC of the digest
Format: biochemical
Conditions: 2 μg yfhC polypeptide (cell lysate), 20 μg stem loop or 8 μg tRNA^Arg2, 50 μl, 30 min
Description: The experimental protocol consisted of two steps. First an in vitro reaction was conducted using a defined yfhC substrate and the yfhC polypeptide supplied as a lysate from an over-producing strain of bacteria. The reactions were then digested enzymatically to mononucleotides with a mixture of three enzymes (nuclease P1, snake venom phosphodiesterase and alkaline phosphatase and the resultant digest analyzed by HPLC to monitor for the appearance of inosine (the product of the yfhC polypeptide deamination reaction).
In this experiment, a series of reactions were run with a synthetic RNA corresponding to the following anticodon stem loop 17-mer of E. coli tRNA^Arg2, in both the linear and folded form (the anticodon is underlined):
All reactions were carried out with the indicated amounts of yfhC substrate and yfhC polypeptide (in the form of a cell lysate) in a final volume of 50 μl. For experiments employing refolded yfhC substrate, the substrate was first boiled and slowly cooled in refolding buffer (30 mM HEPES, pH 7.9, 150 mM NaCl, 10 mM Mg Cl2) prior to adding to the reaction mixture. […] The pellets were resuspended in 50 μl H2O, digested with a mixture of nuclease P1, snake venom phosphodiesterase 1 and alkaline phosphatase (all enzymes in excess) and analyzed by HPLC (Develosil C-30 column, 2 mm×250 mm; Nomura Chemical, Japan). […]

T1 sequence (P68398 whole entry): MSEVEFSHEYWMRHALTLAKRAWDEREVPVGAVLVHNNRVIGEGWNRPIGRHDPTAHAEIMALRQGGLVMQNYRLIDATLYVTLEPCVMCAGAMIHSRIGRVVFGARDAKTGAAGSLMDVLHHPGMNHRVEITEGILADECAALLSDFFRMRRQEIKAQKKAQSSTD

## stem loop: synthetic RNA 17-mer corresponding to the anticodon stem loop of E. coli tRNA^Arg2, linear and refolded; yfhC substrate (CNCGGCNACGAACCGAG; RNA, backbone, methylation of C and the base at N not given here; n positions are unspecified nucleotides, further chemistry not fully specified)
  activity as yfhC substrate (inosine peak in HPLC elution profile): greatest-activity
